# Active and inactive are the calls of the source. The rule behind the calls is not given here.
# What was measured:
# Plasmodium falciparum = assay: Antimalarial activity against chloroquine and pyrimethamine-resistant Plasmodium falciparum K1 after 48 hrs as [3H]hypoxanthine uptake; assay type: functional, organism-based
# [1] = system: Trypanosoma brucei rhodesiense; assay: Antitrypanosomal activity against Trypanosoma brucei rhodesiense after 72 hrs by alamar blue assay; assay type: functional, organism-based
# L6 = assay: Cytotoxicity against rat L6 cells after 72 hrs by alamar blue assay; assay type: cell-based; settings: L6, 72 h
# [2] = Selectivity index, ratio of IC50 for rat L6 cells to IC50 for Plasmodium falciparum K1; assay type: toxicity, cell-based; settings: L6 cells (versus Plasmodium falciparum K1), read-out: Ratio IC50
# [3] = Selectivity index, ratio of IC50 for rat L6 cells to IC50 for Trypanosoma brucei rhodesiense; assay type: toxicity, cell-based; settings: L6 cells (versus Trypanosoma brucei rhodesiense), read-out: Ratio IC50
# Plasmodium berghei [4] = assay: Antiplasmodial activity against Plasmodium berghei ANKA infected Fu albino mice (Mus musculus) at 0.01 mL/kg intraperitoneal dose at 24 hrs as parasitaemia per 1000 erythrocytes; assay type: functional
# Plasmodium berghei [5] = assay: Antiplasmodial activity as increased MST against Plasmodium berghei ANKA infected Fu albino mice (Mus musculus) at 0.01 mL/kg intraperitoneal dose after 24 hrs; assay type: functional, organism-based
Structure (SMILES),IC50 (Plasmodium falciparum),IC50 [1],IC50 (L6),selectivity ratio [2],selectivity ratio [3],Activity (Plasmodium berghei [4]),Activity (Plasmodium berghei [5])
CN1CCN(CC(=O)N2CCC3(N4CCCC4)CC(c4ccccc4)C2C(c2ccccc2)C3)CC1 (racemic),0.83 µM,41.1 µM,69.1 µM,83.2,1.68,,
CN1CCN(CCC(=O)NC2CC3(N4CCCC4)CC(c4ccccc4)C2C(c2ccccc2)C3)CC1 (racemic),2.08 µM,4.15 µM,86.7 µM,41.7,20.9,,
CN1CCN(CC(=O)NC2CC3(N4CCCCC4)CC(c4ccccc4)C2C(c2ccccc2)C3)CC1 (racemic),0.38 µM,0.69 µM,57.5 µM,151,83.4,,
CN(C)C12CC(OC(=O)CN3CCCC3)C(C(c3ccccc3)C1)C(c1ccccc1)C2 (centres undefined),0.71 µM,0.21 µM,32.7 µM,46,156,,
C[C@@H]1CC[C@H]2[C@@H](C)C(=O)O[C@@H]3O[C@@]4(C)CC[C@@H]1[C@]32OO4 [ARTEMISININ],0.0064 µM,,450 µM,70400,,,
O=C(CN1CCCCC1)OC1CC2(N3CCCCC3)CC(c3ccccc3)C1C(c1ccccc1)C2 (centres undefined),0.18 µM,0.87 µM,60.4 µM,336,69.4,,
CN1CCN(CC(=O)N2CCC3(N4CCCCC4)CC(c4ccccc4)C2C(c2ccccc2)C3)CC1 (racemic),0.62 µM,92 µM,177 µM,286,1.93,,
CN1CCN(CC(=O)N2CCC3(N(C)C)CC(c4ccccc4)C2C(c2ccccc2)C3)CC1 (racemic),2.37 µM,45.8 µM,195 µM,82.4,4.27,,
CN1CCN(CC(=O)OC2CC3(N4CCCC4)CC(c4ccccc4)C2C(c2ccccc2)C3)CC1 (racemic),0.54 µM,0.14 µM,24.6 µM,45.5,176,,
CN1CCN(CC(=O)OC2CC3(N(C)C)CC(c4ccccc4)C2C(c2ccccc2)C3)CC1 (racemic),0.35 µM,0.13 µM,39.9 µM,114,307,,
CN1CCN(CCC(=O)N2CCC3(N(C)C)CC(c4ccccc4)C2C(c2ccccc2)C3)CC1 (racemic),1.74 µM,28.2 µM,128 µM,73.5,4.52,,
CN(C)C12CC(N)C(C(c3ccccc3)C1)C(c1ccccc1)C2 (centres undefined),0.61 µM,0.35 µM,40.9 µM,67,117,,
NCC(=O)OC1CC2(N3CCCC3)CC(c3ccccc3)C1C(c1ccccc1)C2 (centres undefined),0.7 µM,0.23 µM,42.9 µM,61.3,187,,
CN1CCN(CC(=O)OC2CC3(N4CCCCC4)CC(c4ccccc4)C2C(c2ccccc2)C3)CC1 (racemic),0.106 µM,0.87 µM,29.5 µM,278,33.9,15%,inactive
CCN(CC)CC(=O)OC1CC2(N(C)C)CC(c3ccccc3)C1C(c1ccccc1)C2 (centres undefined),2.72 µM,0.61 µM,30.1 µM,11.1,49.4,,
CCN(CC)CCCC(C)Nc1ccnc2cc(Cl)ccc12 (centres undefined) [CHLOROQUINE],,,188 µM,,,,
NC1CC2(N3CCCCC3)CC(c3ccccc3)C1C(c1ccccc1)C2 (centres undefined),0.55 µM,0.27 µM,35 µM,63.5,129,,

Structure (SMILES),IC50 (Plasmodium falciparum),IC50 [1],IC50 (L6),selectivity ratio [2],selectivity ratio [3],Activity (Plasmodium berghei [4]),Activity (Plasmodium berghei [5])
CCN(CC)CC(=O)OC1CC2(N3CCCCC3)CC(c3ccccc3)C1C(c1ccccc1)C2 (centres undefined),0.25 µM,0.56 µM,23.9 µM,95.7,42.7,,
O=C(CN1CCCC1)OC1CC2(N3CCCCC3)CC(c3ccccc3)C1C(c1ccccc1)C2 (centres undefined),0.47 µM,0.32 µM,16.4 µM,34.9,51.2,,
CCN(CC)CC(=O)OC1CC2(N3CCCC3)CC(c3ccccc3)C1C(c1ccccc1)C2 (centres undefined),0.2 µM,0.72 µM,49 µM,245,68.1,,
c1ccc(C2CC3(N4CCCCC4)CCNC2C(c2ccccc2)C3)cc1 (centres undefined),0.64 µM,6.57 µM,89.7 µM,140,13.7,,
CN1CCN(CCC(=O)N2CCC3(N4CCCC4)CC(c4ccccc4)C2C(c2ccccc2)C3)CC1 (racemic),0.9 µM,31.9 µM,75.4 µM,83.8,2.36,,
CN1CCN(CC(=O)NC2CC3(N4CCCC4)CC(c4ccccc4)C2C(c2ccccc2)C3)CC1 (racemic),0.82 µM,1.13 µM,50.2 µM,61.3,44.5,,
CN1CCN(CCC(=O)NC2CC3(N4CCCCC4)CC(c4ccccc4)C2C(c2ccccc2)C3)CC1 (racemic),0.28 µM,0.86 µM,61.1 µM,218,71,,
O=C(CN1CCCCC1)OC1CC2(N3CCCC3)CC(c3ccccc3)C1C(c1ccccc1)C2 (centres undefined),0.37 µM,0.37 µM,14.2 µM,38.4,38.4,,
CN(C)C12CC(OC(=O)CN3CCCCC3)C(C(c3ccccc3)C1)C(c1ccccc1)C2 (centres undefined),0.52 µM,1.99 µM,29.3 µM,56.3,14.7,,
CN1CCN(CCC(=O)N2CCC3(N4CCCCC4)CC(c4ccccc4)C2C(c2ccccc2)C3)CC1 (racemic),0.6 µM,30.8 µM,120 µM,200,3.89,,
c1ccc(C2CC3(N4CCCC4)CCNC2C(c2ccccc2)C3)cc1 (centres undefined),0.56 µM,1.16 µM,120 µM,215,104,,
CN1CCN(CC(=O)NC2CC3(N(C)C)CC(c4ccccc4)C2C(c2ccccc2)C3)CC1 (racemic),2.58 µM,1.6 µM,66.2 µM,25.7,41.4,,
CN(C)C12CCNC(C(c3ccccc3)C1)C(c1ccccc1)C2 (centres undefined),0.28 µM,0.6 µM,109 µM,389,181,,
Nc1nc(N)nc(Nc2ccc([As]3SCC(CO)S3)cc2)n1 (centres undefined) [MELARSOPROL],,0.0039 µM,7.78 µM,,2000,,
NC1CC2(N3CCCC3)CC(c3ccccc3)C1C(c1ccccc1)C2 (centres undefined),0.65 µM,0.41 µM,38.1 µM,58.6,92.9,,
CN1CCN(CCC(=O)NC2CC3(N(C)C)CC(c4ccccc4)C2C(c2ccccc2)C3)CC1 (racemic),4.19 µM,2.74 µM,95 µM,22.7,34.7,,

# Reference: ChEMBL document CHEMBL1136884, “Antiplasmodial and antitrypanosomal activity of bicyclic amides and esters of dialkylamino acids” (Bioorg Med Chem, 2009)
